Structures are written as SMILES. Where only a bound is given, the exact number is not on record here.

This experiment deals with T1, Human CaV2.2 channels (Homo sapiens, UniProt Q00975).
T1 construct: expressed in transfected cells; also stably expressing Kir2.3)
T1 sequence (Q00975 whole entry): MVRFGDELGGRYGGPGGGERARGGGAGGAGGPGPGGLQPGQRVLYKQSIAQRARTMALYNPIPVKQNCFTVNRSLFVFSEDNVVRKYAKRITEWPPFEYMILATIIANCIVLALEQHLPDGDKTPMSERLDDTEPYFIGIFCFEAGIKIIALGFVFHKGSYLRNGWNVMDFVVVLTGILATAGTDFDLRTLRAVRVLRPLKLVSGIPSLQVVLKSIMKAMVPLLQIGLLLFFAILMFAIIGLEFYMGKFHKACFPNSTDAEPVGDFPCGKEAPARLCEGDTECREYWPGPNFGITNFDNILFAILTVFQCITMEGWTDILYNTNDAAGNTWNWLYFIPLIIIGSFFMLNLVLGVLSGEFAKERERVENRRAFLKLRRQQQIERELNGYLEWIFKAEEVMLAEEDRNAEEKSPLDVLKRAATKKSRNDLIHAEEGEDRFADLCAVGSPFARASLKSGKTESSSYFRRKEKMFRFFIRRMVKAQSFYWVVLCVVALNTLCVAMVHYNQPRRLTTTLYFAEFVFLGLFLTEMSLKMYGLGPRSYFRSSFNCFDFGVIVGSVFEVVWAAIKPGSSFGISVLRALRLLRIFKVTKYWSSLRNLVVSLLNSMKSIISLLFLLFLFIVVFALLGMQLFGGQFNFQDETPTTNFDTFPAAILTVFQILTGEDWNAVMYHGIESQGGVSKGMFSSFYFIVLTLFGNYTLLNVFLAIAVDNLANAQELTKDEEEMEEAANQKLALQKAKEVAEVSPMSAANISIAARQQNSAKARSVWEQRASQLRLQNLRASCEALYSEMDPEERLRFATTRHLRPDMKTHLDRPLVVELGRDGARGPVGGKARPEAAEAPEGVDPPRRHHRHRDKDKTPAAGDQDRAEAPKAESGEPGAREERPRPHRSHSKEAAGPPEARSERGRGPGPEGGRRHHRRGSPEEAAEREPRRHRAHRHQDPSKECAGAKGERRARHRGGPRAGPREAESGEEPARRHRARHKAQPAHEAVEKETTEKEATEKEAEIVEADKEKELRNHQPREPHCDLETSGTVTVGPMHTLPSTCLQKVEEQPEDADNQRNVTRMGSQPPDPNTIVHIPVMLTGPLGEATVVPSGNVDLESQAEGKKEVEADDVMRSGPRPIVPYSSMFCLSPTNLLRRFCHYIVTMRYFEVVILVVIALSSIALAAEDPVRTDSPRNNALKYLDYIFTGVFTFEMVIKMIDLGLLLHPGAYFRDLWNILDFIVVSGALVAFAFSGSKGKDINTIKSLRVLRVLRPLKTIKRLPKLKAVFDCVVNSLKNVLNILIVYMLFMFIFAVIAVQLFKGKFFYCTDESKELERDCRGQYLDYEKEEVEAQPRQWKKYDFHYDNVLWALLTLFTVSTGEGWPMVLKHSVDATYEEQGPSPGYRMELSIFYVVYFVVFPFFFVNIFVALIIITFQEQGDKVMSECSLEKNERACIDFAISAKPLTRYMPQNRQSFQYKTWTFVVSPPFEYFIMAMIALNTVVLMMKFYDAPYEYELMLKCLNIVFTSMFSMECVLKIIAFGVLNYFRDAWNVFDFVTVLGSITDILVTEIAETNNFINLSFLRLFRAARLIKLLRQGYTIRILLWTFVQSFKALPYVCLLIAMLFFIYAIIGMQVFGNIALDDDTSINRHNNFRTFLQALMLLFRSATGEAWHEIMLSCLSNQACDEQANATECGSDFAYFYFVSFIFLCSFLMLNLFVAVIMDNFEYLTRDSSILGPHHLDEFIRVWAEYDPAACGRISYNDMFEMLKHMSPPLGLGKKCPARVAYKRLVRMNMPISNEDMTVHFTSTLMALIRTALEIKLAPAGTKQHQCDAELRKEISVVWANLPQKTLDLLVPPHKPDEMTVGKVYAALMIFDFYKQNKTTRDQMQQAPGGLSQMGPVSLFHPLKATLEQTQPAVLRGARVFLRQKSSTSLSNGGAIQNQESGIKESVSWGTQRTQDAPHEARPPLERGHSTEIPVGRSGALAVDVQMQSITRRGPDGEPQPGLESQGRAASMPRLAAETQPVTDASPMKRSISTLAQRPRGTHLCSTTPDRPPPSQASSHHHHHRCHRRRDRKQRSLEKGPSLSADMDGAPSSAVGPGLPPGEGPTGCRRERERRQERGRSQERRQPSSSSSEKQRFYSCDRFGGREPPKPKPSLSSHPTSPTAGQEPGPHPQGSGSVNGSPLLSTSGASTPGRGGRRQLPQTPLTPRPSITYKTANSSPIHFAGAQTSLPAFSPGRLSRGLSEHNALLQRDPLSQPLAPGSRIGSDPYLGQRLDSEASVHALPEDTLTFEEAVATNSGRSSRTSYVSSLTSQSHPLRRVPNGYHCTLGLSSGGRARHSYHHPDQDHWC
The experiment can be described thus: Fluorescent assay for CaV2.2 channels using potassium depolarization to induce channel opening (FLIPR, Fluo 4). The conditions noted are these: 3 μM test compound; 30 mM KCl alternative assay buffer (inactivated channel state); HEK293 cells; read-out: %-Inhib (CaV2.2) @3 μM @30 mM KCl. It is filed as cell-based. An excerpt: In the process, the Ca^2+ influx is quantified in the FLIPR assay with the aid of a Ca^2+-sensitive dye (type Fluo-4, Molecular Probes Europe BV, Leiden, the Netherlands) in a fluorescent imaging plate reader (FLIPR 3, Molecular Devices, Sunnyvale, USA), as described hereinafter.
2. Assay Descriptions and Biological Data: 2.1 Fluorescent Assay for CaV2.2 Channels Using Potassium Depolarization to Induce Channel Opening
Human CaV2.2 channels were stably expressed in HEK293 cells together with alpha2-delta and beta subunits of voltage gated calcium channels. In addition, an inwardly rectifying potassium channel (Kir2.3) was stably expressed in these cells to augment control of the cell membrane potential by the concentration of extracellular potassium ions. Raise of the extracellular potassium concentration leads to depolarization of the membrane potential and thus regulates the voltage dependent state of CaV2.2 channels. For preparation, cells were seeded in black poly-D-lysine coated 96-well plates (Becton Dickinson, Biocoat 4640) in 100 μL medium [500 mL DMEM/F-12 plus Glutamax (Invitrogen 31331-093) plus 5.5 mL MEM NEAA 100× (Invitrogen 11140-035) plus 50 mL FBS decomplemented (Invitrogen 10270-106) plus 200 μg/mL Geneticin (Invitrogen 10131-027) plus 50 μg/mL Hygromycin B (Invitrogen 10687-010) plus 2 μg/mL Blasticidin (anti-bl5b Invivo-Gen) plus 0.2 μg/mL Puromycin (A 11138-03)] at a cell density of 30.000 cells per well. Plates were incubated at 37° C. (5% CO2) for 20 to 23 h. On the day of experiment medium was discarded and cells were loaded with Fluo 4 by addition of 100 μL of basic assay buffer (10 mM HEPES, 1 mM KCl, 149 mM NaCl, 0.8 mM CaC2, 1.7 mM MgCl2, 10 mM Glucose, 0.1% BSA. pH 7.4) containing 2 μM Fluo 4 (Molecular Probes; F-14201), 0.01% pluronic acid (Molecular Probes; P-6866) and 2.5 mM probenecid (Molecular Probes; P36400). Cells were incubated in the dark at 25° C. for 60 min. Then dye containing buffer was discarded and 100 μL basic (1 mM KCl) or alternative (30 mM KCl) assay buffer was added. The alternative assay buffer contained altered concentrations of KCl (30 mM) and NaCl (120 mM) and was used in order to promote the inactivated channel state. After that 25 μL of basic or alternative assay buffer with or without test compound were added and cells were incubated again in the dark at 25° C. for 15 min. Fluorescence intensity was measured on a FLIPR 3 instrument (Molecular Devices Corp., Sunnyvale, Calif.) with excitation at 480 nm and emission at 535 nm. After continuously reading fluorescence for 30 sec, 50 μL of basic assay buffer containing 210 mM KCl (NaCl omitted) were added for depolarization. Peak fluorescent signal intensity was determined and the amplitude of the peak signal, normalized to base line, was used to measure channel inhibition by test compounds.
For `Cc1c(-c2ncc(Cl)cn2)c(C(=O)N(C)CC(C)(C)C)n(Cc2ccccc2)c1C(F)(F)F` [Example 18, 1-Benzyl-3-(5-chloro-pyrimidin-2-yl)-N-(2,2-dimethyl-propyl)-N,4-dimethyl-5-(trifluoromethyl)-1H-pyrrole-2-carboxylic acid amide], the inhibition at 3 µM is over 95%.
In the case of `Cc1c(-c2ncc(Cl)cn2)c(C(=O)N(C)CC(C)(C)C(N)=O)n(Cc2ccccc2)c1C(F)(F)F` [Example 48, 1-Benzyl-N-(2-carbamoyl-2-methyl-propyl)-3-(5-chloro-pyrimidin-2-yl)-N,4-dimethyl-5-(trifluoromethyl)-1H-pyrrole-2-carboxylic acid amide] it was over 95%.
In the case of `Cc1c(-c2cncnc2)c(C(=O)N(C)CC(C)(C)C)n(Cc2ccccc2)c1C(F)(F)F` [Example 11, 1-Benzyl-N-(2,2-dimethyl-propyl)-N,4-dimethyl-3-pyrimidin-5-yl-5-(trifluoromethyl)-1H-pyrrole-2-carboxylic acid amide] it was 75 to 95%; in that of `Cc1c(-c2cnn(C)c2)c(C(=O)N(C)CC(C)(C)C)n(Cc2ccccc2)c1C(F)(F)F` [Example 04, 1-Benzyl-N,4-dimethyl-3-(1-methyl-1H-pyrazol-4-yl)-N-neopentyl-5-(trifluoromethyl)-1H-pyrrole-2-carboxamide], over 95%; in that of `Cc1c(-c2ccc(O)nc2)c(C(=O)N(C)CC(C)(C)C)n(Cc2ccccc2)c1C(F)(F)F` [Example 03, 1-Benzyl-3-(6-hydroxypyridin-3-yl)-N,4-dimethyl-N-neopentyl-5-(trifluoromethyl)-1H-pyrrole-2-carboxamide], 40 to 75%.
In the case of `COc1cc(C)c(-c2c(C)c(C(F)(F)F)n(Cc3ccccc3)c2C(=O)N(C)CC(C)(C)C)cn1` [Example 21, 1-Benzyl-N-(2,2-dimethyl-propyl)-3-(6-methoxy-4-methyl-pyridin-3-yl)-N,4-dimethyl-5-(trifluoromethyl)-1H-pyrrole-2-carboxylic acid amide] it was 75 to 95%; in that of `Cc1c(-c2cn[nH]c2)c(C(=O)N2CCOCC2)n(Cc2ccccc2)c1C(F)(F)F` [Example 10, (1-Benzyl-4-methyl-3-(1H-pyrazol-4-yl)-5-(trifluoromethyl)-1H-pyrrol-2-yl)(morpholino)methanone], 40 to 75%; in that of `Cc1cc(Cl)ncc1-c1c(C)c(C(F)(F)F)n(Cc2ccccc2)c1C(=O)N1CCOCC1` [Example 27, [1-Benzyl-3-(6-chloro-4-methyl-pyridin-3-yl)-4-methyl-5-(trifluoromethyl)-1H-pyrrol-2-yl]-morpholin-4-yl-methanone], 75 to 95%.
Consider `COc1ccc(-c2c(C)c(C(F)(F)F)n(Cc3ccccc3)c2C(=O)N2CCOCC2)cn1` [Example 06, (1-Benzyl-3-(6-methoxypyridin-3-yl)-4-methyl-5-(trifluoromethyl)-1H-pyrrol-2-yl)(morpholino)methanone], for which the inhibition at 3 µM was in the range of 75 to 95%.
On to `Cc1c(-c2ccc(Cl)nn2)c(C(=O)N(C)CC(C)(C)C)n(Cc2ccccc2)c1C(F)(F)F` [Example 22, 1-Benzyl-3-(6-chloro-pyridazin-3-yl)-N-(2,2-dimethyl-propyl)-N,4-dimethyl-5-(trifluoromethyl)-1H-pyrrole-2-carboxylic acid amide], for which the inhibition at 3 µM is over 95%.
In the case of `Cc1c(-c2ccnnc2)c(C(=O)N(C)CC(C)(C)C)n(Cc2ccccc2)c1C(F)(F)F` [Example 32, 1-Benzyl-N,4-dimethyl-N-neopentyl-3-(pyridazin-4-yl)-5-(trifluoromethyl)-1H-pyrrole-2-carboxamide], the inhibition at 3 µM fell in the range of 75 to 95%.
As to `Cc1c(-c2ccnnc2)c(C(=O)N2CCOCC2)n(Cc2ccccc2)c1C(F)(F)F` [Example 37, (1-Benzyl-4-methyl-3-(pyridazin-4-yl)-5-(trifluoromethyl)-1H-pyrrol-2-yl)(morpholino)methanone], the inhibition at 3 µM fell in the range of 40 to 75%.
The value for `Cc1c(-c2ncc(C(F)(F)F)cc2F)c(C(=O)N2CCOCC2)n(Cc2ccccc2)c1C(F)(F)F` [Example 24, [1-Benzyl-3-[3-fluoro-5-(trifluoromethyl)-pyridin-2-yl]-4-methyl-5-(trifluoromethyl)-1H-pyrrol-2-yl]-morpholin-4-yl-methanone] was over 95%; that for `Cc1c(-c2ncc(Cl)cn2)c(C(=O)N2CCOC(C)(C)C2)n(Cc2ccccc2)c1C(F)(F)F` [Example 45, [1-Benzyl-3-(5-chloro-pyrimidin-2-yl)-4-methyl-5-(trifluoromethyl)-1H-pyrrol-2-yl]-(2,2-dimethyl-morpholin-4-yl)-methanone] was over 95%; that for `Cc1c(-c2ncccn2)c(C(=O)N(C)CC(C)(C)C)n(Cc2ccccc2)c1C(F)(F)F` [Example 35, 1-Benzyl-N,4-dimethyl-N-neopentyl-3-(pyrimidin-2-yl)-5-(trifluoromethyl)-1H-pyrrole-2-carboxamide] was 75 to 95%.
The value for `Cc1cc(C#N)ncc1-c1c(C)c(C(F)(F)F)n(Cc2ccccc2)c1C(=O)N1CCOCC1` [Example 26, 5-[1-Benzyl-4-methyl-2-(morpholine-4-carbonyl)-5-(trifluoromethyl)-1H-pyrrol-3-yl]-4-methyl-pyridine-2-carbonitrile] was 75 to 95%.
The value for `Cc1c(-c2cn[nH]c2)c(C(=O)N(C)CC(C)(C)C)n(Cc2ccccc2)c1C(F)(F)F` [Example 09, 1-Benzyl-N,4-dimethyl-N-neopentyl-3-(1H-pyrazol-4-yl)-5-(trifluoromethyl)-1H-pyrrole-2-carboxamide] was 75 to 95%; that for `Cc1c(-c2ccc(Cl)cn2)c(C(=O)N(C)CCS(C)(=O)=O)n(Cc2ccccc2)c1C(F)(F)F` [Example 43, 1-Benzyl-3-(5-chloro-pyridin-2-yl)-N,4-dimethyl-N-(2-methylsulfonyl-ethyl)-5-(trifluoromethyl)-1H-pyrrole-2-carboxylic acid amide] was over 95%.
Regarding `Cc1c(-c2ncccn2)c(C(=O)N2CCOCC2)n(Cc2ccccc2)c1C(F)(F)F` [Example 40, (1-Benzyl-4-methyl-3-(pyrimidin-2-yl)-5-(trifluoromethyl)-1H-pyrrol-2-yl)(morpholino)methanone], the inhibition at 3 µM was 40 to 75%.
Take `Cc1c(-c2ncc(Cl)cn2)c(C(=O)N2CCNC(=O)C2)n(Cc2ccccc2)c1C(F)(F)F` [Example 47, 4-[1-Benzyl-3-(5-chloro-pyrimidin-2-yl)-4-methyl-5-(trifluoromethyl)-1H-pyrrole-2-carbonyl]-piperazin-2-one]: the inhibition at 3 µM lay in the range of 40 to 75%.
In the case of `Cc1noc(C)c1-c1c(C)c(C(F)(F)F)n(Cc2ccccc2)c1C(=O)N(C)CC(C)(C)C` [Example 16, 1-Benzyl-3-(3,5-dimethyl-isoxazol-4-yl)-N-(2,2-dimethyl-propyl)-N,4-dimethyl-5-(trifluoromethyl)-1H-pyrrole-2-carboxylic acid amide] it was 75 to 95%; in that of `Cc1c(-c2ccc(Cl)cn2)c(C(=O)NC(C)C)n(Cc2ccccc2)c1C(F)(F)F` [Example 53, 1-Benzyl-3-(5-chloro-pyridin-2-yl)-N-isopropyl-4-methyl-5-(trifluoromethyl)-1H-pyrrole-2-carboxylic acid amide], 75 to 95%.

Values taken from patent US9562036B2, “Fluoromethyl-substituted pyrrole carboxamides as CaV2.2 calcium channel blockers” (GRÜNENTHAL GMBH, priority 2013, dated 2017).
